{"source": "patent US11266086B2", "about": "“Efficient plant transformation method” (Wisconsin Alumni Research Foundation, priority 2018, dated 2022)", "format_in_all_cases": "in vivo", "key": {"[1]": {"system": "soybean VAEs", "experiment": "Particle bombardment of soybean VAEs with Dicot Bomb 9 and glyphosate selection", "conditions": "for TF / Rooting Shoots: BOMB 9, glyphosate selection", "description": "For particle bombardment experiments, gold-DNA “bead prep” was prepared by first washing 50 mg 0.6 um gold microcarriers (BioRad part #1652262) in 1 ml 100% ethanol and sonicating for 1 min 45 kHz. Gold was pelleted by centrifugation at 5000 rpm in microfuge (˜2300×g) and ethanol removed. Gold was then re-suspended in 1 ml 100% ethanol and stored at −20 C until use. To precipitate DNA onto beads, the 50 mg gold/1 ml ethanol stock was sonicated for 1 min 45 kHz. 42 ul of this stock was transferred to an Eppendorf tube, then pelleted by centrifugation at 2500 rpm for 10 seconds, after which ethanol was removed. 500 uL sterile water was added and mixture sonicated 1 min 45 kHz. Gold was again pelleted by centrifugation at 2500 rpm for 10 seconds and water removed. 25 ul sterile water was then added, followed by sonication for 1 min 45 kHz. 2.6, 1.3, or 0.65 ug VS225 DNA was added, then sterile water to bring volume up to 245 ul. 250 ul cold 2.5 M CaCl2 was added, followed by 50 ul 0.1 M spermidine. Solution was mixed by low speed vortexing. Tube was incubated on ice for approximately 1 hour with gentle inversions every 5-10 minutes. DNA/gold was pelleted at 1000 rpm (˜100×g) for 2 min and supernatant removed. Pellet was then washed with 1 ml 100% EtOH w/pipette tip, then pelleted again at 1000 rpm (˜100×g) for 2 min and supernatant removed 36 ul 100% EtOH was added to tube and gold completely re-suspended with low-speed vortexing. Bead prep was stored at −20 C until used, with 5 ul used per bombardment. This corresponds to 360, 180, or 90 ng DNA per blast; 290 ug gold per blast (1.2, 0.6, or 0.3 ng DNA per ug gold).\nFor blasting Soybean VAEs, meristem explants were incubated in 20% PEG4000 with 60 mg/L Captan and 30 mg/L Bravo for 1 hour, rinsed thoroughly, and pre-cultured overnight on WCIC EJW1 media at 28 C 16/8 photoperiod.\nAfter preculture, Soybean VAEs were targeted on a 12% xantham gum holding media, 20 per plate, with meristems oriented upward. Prior to particle bombardment on the PDS-1000 helium gun, stop screens (BioRad part 1652336), 1350 psi rupture disks (BioRad 1652330), and macrocarrier holders (BioRad part 1652322) were sanitized for 1 min in 70% EtOH. Carrier sheets (BioRad part 1652335) were sanitized for 1 min in isopropanol. 1350 psi rupture disk was placed into the rupture disk retaining cap and screwed into the gas acceleration chamber. Stop screen was placed in the brass adjustable nest. 5 uL bead prep was deposited on the center of each carrier sheet loaded onto the macrocarrier holder and allowed to air dry. Macrocarrier holder was then turned over to place above retaining screen on brass nest. Macrocarrier cover lid was screwed on and completed macrocarrier launch assembly was placed on shelf directly under rupture disk. Gap distance between rupture disk and launch assembly was approximately 1 cm. Lid from target plate was removed and plate was placed on shelf 2 (2nd shelf from macrocarrier launch assembly) which is approximately 6 cm from assembly. Helium tank, PDS-1000, and vacuum were all turned on. Door was closed and vacuum applied to ˜27-28 In Hg. Fire button was depressed and held down until blast was complete. Vacuum was then released and target plate removed.\nAfter blasting, soybean VAEs were detargeted onto WCIC EJW1 media and allowed to rest overnight at 28 C 16/8 photoperiod. Explants were then placed on WCIC Spectinomycin Selection Medium and placed in 28 C 16/8 photoperiod.\nAlternate selectable markers for soybean VAE transformation—We applied soybean VAE technology to glyphosate selection, and were able to recover T0 plants from particle bombardment using Dicot Bomb 9 (FIG. 29) and the Goosegrass EPSP; where the explants were selected on 75 uM glyphosate; then rooted on 25 uM glyphosate. […] Our glyphosate selection work focused on reducing this cytokinin load during the preculture/rest phase. The T0 rooted shoots tested positive for GUS and RFP (tdTomato)."}, "[2]": {"system": "non-inoculated soybean VAEs", "experiment": "Spectinomycin selection titration on non-inoculated soybean VAEs", "conditions": "at 5 weeks", "from_the_text": "We ran a titration of spectinomycin selection levels on non-inoculated soybean VAEs, and could see visible bleaching and suppression of shooting and rooting as low as 50 ppm at 5 weeks (FIG. 5)."}, "[3]": {"system": "soybean VAEs", "experiment": "Agrobacterium-mediated transformation of soybean meristem explants / VAEs with TDZ in co-culture", "description": "Soybean seeds were surface sanitized in 20% Clorox (from concentrated Clorox with 8.25% sodium hypochlorite) for 5 minutes, rinsed 5× with sterile RO water, and then primed by allowing them to sit for 2 hrs at room temperature. Seeds were then imbibed in WCIC Bean Germination Media (BGM) overnight. Meristem explants were prepared the next day by removing seed coats and cotyledons from the seed using either a manual process or in a wet mill consisting of a series of rollers and spray nozzles. Meristem explants were then either dried under a variety of conditions, or used fresh. Drying of explants was performed in either a Laminar Flow Hood (LFH) with explants resting on a filter paper exposed to air, or in a BryAir seed dryer (model VFB-3-E-DXA) on filter paper. For internal moisture determination, 0.5-1 g of dried material was placed in a 103 C oven for 16-18 hours, contents allowed to cool, then re-weighed. For use in transformation, dried explants—designated as soy VAEs (value added explants) were incubated 1-2 hours at room temperature in 20% PEG4000 (dissolved in sterile distilled water) supplemented with 60 mg/L Captan fungicide and 30 mg/L Bravo (Daconil) fungicide. Explants were then rinsed 5-6× with sterile distilled water and inoculated with Agrobacterium. […] FIGS. 3A and 3B show VAEs (3A) as compared to explants directly from just dry seed (3B).\nAgrobacterium inoculum was prepared under laminar flow hood from overnight cultures derived from 20% glycerol stocks stored at −80 C. Glycerol stocks were allowed to thaw, and approximately 50 ul stock was added to 50 ml LB with 50 mg/L kanamycin (GV3101 strain); or 250 ul stock to 50 ml LB with 50 ppm kanamycin and 100 ppm carbenicillin (AGL1 strain). The VS225 binary construct with pVS1 origin of replication conferred resistance to kanamycin, and had aadA, gus, and cas9 genes on its T-DNA. The pWI-1000 binary construct with pVS1 origin of replication conferred resistance to kanamycin, and had aadA and gus on its T-DNA. The pWI-1000 dsRED binary construct with pVS1 origin of replication conferred resistance to kanamycin, and had aadA, gus, and rfp (dsRED) on its T-DNA. Cultures were grown overnight at 28° C. 200 RPM on orbital shaker (Innova 4400 incubator shaker). The next morning optical densities of cultures at 660 nm (OD660) were checked (Hach DR5000™ Spectrophotometer) under laminar flow and then centrifuged at 2619×g for 20 min (H6000A rotor on Sorvall® RC3B centrifuge). Pelleted bacteria was re-suspended in WCIC INO media under laminar flow, diluted to OD660 0.3-0.45, and incubated at room temperature 150 RPM until used (VWR orbital shaker). In some experiments acetosyringone was added to inoculum at 100 uM to help induce the vir operon.\nMeristem explants were inoculated under laminar flow in inverted PlantCon® (approximately 25 ml inoculum per PlantCon®) (MP Biomedicals, LLC Cat. 26-722-06) and sonicated for 20 s, 45+/−2 kHz (L&R Sonicator Quantrex 450) in a 0.1% Triton X-100 water bath (Triton X-100 from Sigma #9002-93-1). Inoculated explants were incubated with inoculum for additional 30 min at room temperature at 75 RPM. Excess inoculum was then removed, and explants co-cultured in PlantCons® with 2.5 ml WCIC INO media supplemented with 50 mg/L nystatin, 10 mg/L TBZ, and 95 uM lipoic acid at 23 C 16/8 photoperiod. In some experiments this co-culture media was further supplemented with 1 mg/L TDZ in attempt to multiply meristematic cells and possibly suppress apical dominance. In some experiments acetosyringone was added to inoculum and/or co-culture medium at 100 uM as an inducing agent for the virulence cascade in the vir operon.\nAfter co-culture (3-5 days) explants were transferred to 200 ppm spectinomycin WCIC B5 media. When using the GV3101 strain we supplemented this selection media with 200-400 mg/L carbenicillin to knock Agrobacterium overgrowth down. […]"}}, "data": [{"compound": "c1ccc(CNc2ncnc3nc[nH]c23)cc1", "note": "[BAP, 6-benzylaminopurine]", "values": [{"measurement": "TF", "setting": "[1]; preculture and rest OR (3 ppm BAP)", "value": 0.3, "unit": "%"}, {"measurement": "Rooting Shoots", "setting": "[1]; preculture and rest OR (3 ppm BAP), 380 initial explants", "value": 1}]}, {"compound": "CN[C@@H]1[C@H](O)[C@H](NC)[C@H]2O[C@@]3(O)C(=O)C[C@@H](C)O[C@H]3O[C@@H]2[C@H]1O", "note": "[spectinomycin]", "values": [{"measurement": "lowest spectinomycin level with visible bleaching and suppression of shooting and rooting", "setting": "[2]", "value": 50, "unit": "ppm"}]}, {"compound": "O=C(Nc1ccccc1)Nc1cnns1", "note": "[TDZ, thidiazuron]", "values": [{"measurement": "TF", "setting": "[3]; VAE batch S16b, 5 h dry in 20 C Bryair to 8.3% moisture, 3025N, TDZ in co-culture", "value": 0.6, "unit": "%"}, {"measurement": "# T0 Plants", "setting": "[3]; VAE batch S16b, 5 h dry in 20 C Bryair to 8.3% moisture, 3025N, TDZ in co-culture, 162 explants", "value": 1}, {"measurement": "TF", "setting": "[3]; VAE batch S18, 6 h dry in 20 C Bryair to 27% moisture, LD10-30087, TDZ in co-culture", "value": 1.4, "unit": "%"}, {"measurement": "# T0 Plants", "setting": "[3]; VAE batch S18, 6 h dry in 20 C Bryair to 27% moisture, LD10-30087, TDZ in co-culture, 74 explants", "value": 1}, {"measurement": "TF", "setting": "[3]; VAE batch S19, 6 h dry in 20 C Bryair to 21% moisture, LD10-30092, TDZ in co-culture", "value": 3.3, "unit": "%"}, {"measurement": "# T0 Plants", "setting": "[3]; VAE batch S19, 6 h dry in 20 C Bryair to 21% moisture, LD10-30092, TDZ in co-culture, 91 explants", "value": 3}, {"measurement": "TF", "setting": "[3]; VAE batch S20, 6 h dry in 20 C Bryair to 18% moisture, LD10-30094, TDZ in co-culture", "value": 1.2, "unit": "%"}, {"measurement": "# T0 Plants", "setting": "[3]; VAE batch S20, 6 h dry in 20 C Bryair to 18% moisture, LD10-30094, TDZ in co-culture, 85 explants", "value": 1}, {"measurement": "TF", "setting": "[3]; VAE batch S26, 6 h dry in 20 C Bryair, W82, TDZ in co-culture (Table 12)", "value": 4.4, "unit": "%"}, {"measurement": "# T0 Plants", "setting": "[3]; VAE batch S26, 6 h dry in 20 C Bryair, W82, TDZ in co-culture, 182 explants (Table 12)", "value": 8}, {"measurement": "TF", "setting": "[3]; VAE batch S27, 5 h dry in 20 C Bryair, 3849N, TDZ in co-culture", "value": 2.1, "unit": "%"}, {"measurement": "# T0 Plants", "setting": "[3]; VAE batch S27, 5 h dry in 20 C Bryair, 3849N, TDZ in co-culture, 289 explants", "value": 6}, {"measurement": "TF", "setting": "[3]; W82 VAEs, 20 C Bryair 5.5 h, 1 ppm TDZ in co-culture, second set of replicates", "value": 3.2, "unit": "%"}, {"measurement": "# T0 Plants", "setting": "[3]; W82 VAEs, 20 C Bryair 5.5 h, 1 ppm TDZ in co-culture, second set of replicates, 126 explants", "value": 4}, {"measurement": "TF", "setting": "[3]; W82 VAEs, 20 C Bryair 6 h, 1 ppm TDZ in co-culture, first set of replicates (Table 13b)", "value": 5.5, "unit": "%"}, {"measurement": "# T0 Plants", "setting": "[3]; W82 VAEs, 20 C Bryair 6 h, 1 ppm TDZ in co-culture, first set of replicates (Table 13b), 182 explants", "value": 10}, {"measurement": "TF", "setting": "[3]; W82 VAEs, LFH 20.5 h, 1 ppm TDZ in co-culture, second set of replicates", "value": 2.1, "unit": "%"}, {"measurement": "# T0 Plants", "setting": "[3]; W82 VAEs, LFH 20.5 h, 1 ppm TDZ in co-culture, second set of replicates, 144 explants", "value": 3}, {"measurement": "TF", "setting": "[3]; W82 VAEs, various drying conditions, 1 ppm TDZ in co-culture, summary of replicates", "value": 3.8, "unit": "%"}, {"measurement": "# R0 Plants", "setting": "[3]; W82 VAEs, various drying conditions, 1 ppm TDZ in co-culture, summary of replicates, 452 explants", "value": 17}, {"measurement": "TF", "setting": "[3]; freshly excised Williams82, fresh sample of explants dried to generate S17 series, TDZ 1 mg/L in co-culture", "value": 12.6, "unit": "%"}, {"measurement": "# T0 Plants", "setting": "[3]; freshly excised Williams82, fresh sample of explants dried to generate S17 series, TDZ 1 mg/L in co-culture, 95 explants", "value": 12}, {"measurement": "effect of TDZ in co-culture on transformation", "setting": "[3]; freshly excised soy meristem explants (S17 series), TDZ 1 mg/L in co-culture", "value": "apparent benefit"}, {"measurement": "TF", "setting": "[1]; preculture EJW1 (1 ppm TDZ), rest EJW0 (no PGRs)", "value": 0.4, "unit": "%"}, {"measurement": "Rooting Shoots", "setting": "[1]; preculture EJW1 (1 ppm TDZ), rest EJW0 (no PGRs), 264 initial explants", "value": 1}, {"measurement": "TF", "setting": "[1]; preculture and rest EJW3 (0.5 ppm TDZ)", "value": 0.5, "unit": "%"}, {"measurement": "Rooting Shoots", "setting": "[1]; preculture and rest EJW3 (0.5 ppm TDZ), 387 initial explants", "value": 2}]}, {"compound": "O=C(O)CNCP(=O)(O)O", "note": "[glyphosate]", "values": [{"measurement": "plant recovery with glyphosate selection", "setting": "[1]; preculture and resting media conditions of the spectinomycin protocol (EJW1 with TDZ), particle bombardment", "value": "yielded no plants"}]}]}
